Marks after values point to notes of the source that are not given here.
Assays:
[1] = tested on: globally ischemic, isolated rat hearts; assay: Effect of 5HT, alone or with 5HT2 antagonist, on time to contracture and pre-ischemic function in isolated rat hearts; conditions: for Coronary Flow / HR / LVDP: 30 μM 5HT + 3 μM Ketanserin, pre-ischemic; for effect on the pro-ischemic effect of 5HT (time to contracture): 30 µM 5HT plus antagonist, both given 10 minutes before ischemia, Figure 3
Procedure: To determine the effect of serotonin receptor agonists and antagonists, male Sprague-Dawley rats (450-550 g) were prepared as described below. The rats were anesthetized using 100 mg/kg sodium pentobarbital (i.p.). They were intubated and then treated with i.v. heparin (1000 U/kg). While being mechanically ventilated, their hearts were perfused in situ via retrograde cannulation of the aorta. […] A water-filled latex balloon attached to a metal cannula was then inserted into the left ventricle and connected to a Statham pressure transducer for measurement of left ventricular pressure. […] Pre-ischemia or pre-drug function, heart rate and coronary flow (extracorporeal electromagnetic flow probe) were then measured. Left ventricular developed pressure (LVDP) was calculated from the difference between left ventricular peak systolic pressure and EDP. Cardiac temperature was maintained throughout the experiment by submerging the hearts in 37 ° C buffer which was allowed to accumulate in a stoppered, heated chamber. In another series of hearts, the effect of 5HT on the severity of ischemia was determined. […] Vehicle (0.1% DMSO) given 10 minutes before ischemia (n = 5). The hearts were subjected to global ischemia as described above and time to contracture determined. Reperfusion function and LDH release were not determined in this group.

[2] = tested on: alpha, Adrenoceptors; assay: Methoxamine-induced contraction in rat aortic rings (alpha1 blocking potency); conditions: 45 minute incubation; Figure 5B
Procedure: In order to determine the alpha1 blocking potency of cinanserin, ketanserin and LY 53857, their effect on methoxamine induced aortic constriction was determined. Male Sprague-Dawley rats were sacrificed using C02. Aortic rings (3 mm in width) were cut, denuded of endothelium by gently rolling the rings on moistened filter paper, and mounted on stainless steel hooks in 20 mL muscle chambers containing oxygenated physiological salt solution (PSS) of the following composition (in mM): 118.4 NaCI, 4.7 KCI, 1.2 MgS04, 1.2 KH2P04, 1.9 CaC12, 25.0 NaHC03, 10.1 D-glucose, and 0.01 mM Na2EDTA maintained at 37 °C. The hooks were connected to Grass FT03C transducers for recording of isometric force development. The rings were stretched to 2 g preload during the equilibration period. During equilibration the rings were periodically stimulated with 24 mM KCI to determine contractility. The effectiveness of endothelial removal was confirmed by the absence of relaxation by 1 µM acetylcholine of a contraction in response to 0.01 µM phenylephrine.
Various concentrations of the test compounds were then added to individual baths and allowed a 45 minute incubation before cumulative concentration response curves for methoxamine (1 nM-30 /1.M) were obtained. Solvent controls were run in parallel. […]

How did the “Coronary Flow” value ([1]; Post-Drug) turn out when `O=C(c1ccc(F)cc1)C1CCN(CCn2c(=O)[nH]c3ccccc3c2=O)CC1` [Ketanserin, ketanserin] was run?
The value was 18 ± 1 mL/min/g.

And the HR ([1]; Post-Drug)?
Its HR is 335±17^a beats/min.

What about the LVDP ([1]; Post-Drug) of the same compound?
The LVDP was 130±2 mmHg.

And the “Coronary Flow” value ([1]; Pre-Drug)?
Its value is 18 ± 2 mL/min/g.

What about the HR ([1]; Pre-Drug) of the same compound?
Its HR is 270±16 beats/min.

What about the LVDP ([1]; Pre-Drug) of the same compound?
The LVDP was 141±4 mmHg.

What about the “effect on the pro-ischemic effect of 5HT (time to contracture)” value [1] of the same compound?
Its value is “abolished the pro-ischemic effect of serotonin”.

What about the “effect on the pro-ischemic effect of 5HT (time to contracture)” value ([1]; listed as ketanserin) of the same compound?
The value was “completely abolished this pro-ischemic effect”.

What about the “concentration from which the shift of the methoxamine-tension curve was significant” value [2] of the same compound?
Its value is 0.3 µM.

From EP0596449A2, “Serotonin receptor antagonists for treating myocardial ischemia” (E.R. SQUIBB & SONS, INC., priority 1992, dated 1994)
